Entries after “also recorded” stand apart in the source; their conditions may differ.
Tests used:
[1] = test system: RAD52 OB mutant (K102A/K103A/K169A/R173A); assay: FRET-based inhibition of ssDNA binding, outer binding defective RAD52 mutant; design: species or system human; conditions: for fold lower IC50 (increased efficiency) against OB mutant compared to IB mutant: Z56: wild type and IB mutant within the fitting error
Protocol: Proteins: The 6×His-tagged human RAD52 proteins (wild type and mutants) and untagged human RPA were expressed and purified as previously described in (Hengel S R, eLife. 2016; 5; Grimme J M, et al., Nucleic Acids Res. 2010; 38(9):2917-30; and Henricksen L A, et al., The Journal of biological chemistry. 1994; 269(15):11121-32). RPA and RAD52 protein concentrations were determined by measuring absorbance at 280 nm using extinction coefficients of 88,830 M^−1 cm^−1 and 40,470 M^−1 cm^−1, respectively.
FRET-based DNA binding and inhibition assays: FRET-based that monitor the RAD52-ssDNA, RPA-ssDNA and RAD52-RPA-ssDNA binding were carried out as previously described (Hengel S R, eLife. 2016; 5; Grimme J M, et al., Nucleic Acids Res. 2010; 38(9):2917-30; and Grimme J M, Spies M. FRET-based assays to monitor DNA binding and annealing by Rad52 recombination mediator protein. Methods in molecular biology (Clifton, NJ). 2011; 745:463-83) using Cary Eclipse Spectrofluorimeter (Agilent) at 25° C., in 5 mm quartz cuvettes, and in buffer containing 30 mM Tris-Acetate (pH 7.5) and 1 mM DTT. Cy3 dye was excited at 530 nm and its emission was monitored at 565 nm. Emission of Cy5 acceptor fluorophore excited through the energy transfer from Cy3 donor is monitored at 660 nm simultaneously with emission of Cy3 dye. Both the excitation and the emission slits were set to 10 nm. All experiments were carried out using 1 nM (molecules) Cy3-dT30-Cy5 ssDNA. The optimal concentrations of the RAD52 (6 nM) and RPA (1 nM) proteins were selected by titrating the respective protein into 1 nM Cy3-dT30-Cy5 solution, and chosen based on the largest separation of the FRET values corresponding to the protein bound and free DNA.
The inhibition of the RAD52-ssDNA, RPA-ssDNA and RAD52-RPA-ssDNA complexes was evaluated by titrating each compound to the respective complex, measuring Cy3 and Cy5 fluorescence, and calculating FRET as previously described (Hengel, S. R., et al., eLife, 5).
Spectral properties of many compounds overlapped with the Cy3 and Cy5 fluorescence. To correct the calculated FRET values for the compound signal, the fluorogenic compounds were titrated into buffer and into solution of 1 nM Cy3-dT30-Cy5. For all tested compounds, the change in the signal in the Cy3 and Cy5 channels with and without Cy3/Cy5-labeled DNA present was the same. […] To account for the dye fluorescence, for each compound concentration, the apparent change in FRET of the ssDNA in the presence the compound was subtracted from the respective FRET signal of the RAD52-ssDNA, RPA-ssDNA or RAD52-ssDNA-RPA complex at the same inhibitor concentration. The IC50 values were calculated by fitting the corrected FRET data to the four-parameter dose response model using GraphPad Prism. […]

EUFA423F cells = assay: CellTiter-Glo cell viability, BRCA2-mutated cells; type: cell-based, human; conditions: for toxicity towards EUFA423 cells: BRCA2-mutated cells, yes/no; for toxicity / selective toxicity towards BRCA2-mutated cells in cell viability assays: EUFA423F versus EUFA423F HA
Text: Cell lines: EUFA423F cells that are derived from a Fanconi Anemia patient with complementation group D1 and have biallelic mutations (7691 insAT and 9900 insA) in BRCA2 that result in two different truncated forms of BRCA2 (Howlett N G, et al., Science (New York, NY). 2002; 297(5581):606-9) and its counterpart complemented with expression vector for full-length BRCA2 (EUFA HA) were a generous gift from Dr. Simon Powell, Molecular Biology Program, Radiation Oncology, Sloan-Kettering Cancer Center, New York, NY).
Cell proliferation assay: Selective toxicity of the compounds towards human BRCA2 deficient cells was tested in EUFA423F and its complement EUFA423F HA using CellTiter-Glo® Luminescent Cell Viability Assay (Promega, Madison, WI). The cell lines were maintained in DMEM (Gibco/ThermoFisher Scientific, Waltham, MA) supplemented with 10% FBS and 10 mM HEPES (Gibco/ThermoFisher Scientific, Waltham, MA). EUFA423F HA cells were routinely supplemented with G418 in order to maintain the BRCA2 expression plasmid. Both cell lines were seeded in sterile tissue culture treated, white opaque 384-well plates (Perkin Elmer Inc., Waltham, MA) 3000 cells/well for EUFA423F HA and 2500 cells/well for EUFA423F) and allowed to adhere for 24 hours. Compounds dissolved in DMSO were added in the concentration range of 0-100 μM. Controls were treated with equivalent DMSO volumes. The cells were treated with compounds for 72 hours (to ensure that all cells experienced at least two S-phases). Post treatment, the cells were washed, treated with the CellTiter-Glo® reagent was added and the plate was analyzed as using a Gen5 (ver2.1) luminosity plate reader. The luminescence that reports on ATP generation by the surviving cells was normalized for the DMSO treated control as 100%. The normalized luminescence (average±standard deviation for at least three independent measurements obtained with different cell passages) was plotted in GraphPad Prism as a function of compound concentration. Clonogenic Survival: EUFA423F and EUFA423F HA cells were seeded in a 96 well plate. Compounds dissolved in DMSO were added to final concentrations of 0, 50, and 100 μM for the compound of Example 8 and the compound of Example 1, and 0, 5, and 10 μM for the compounds of Examples 2-7. The cells were treated with compounds for 72 hours. Post treatment, cell cultures were harvested by collecting all non-adherent cells in the well, trypsinization of all adherent cells, combining, pelleting and then resuspending in fresh media. Cultures treated with DMSO only were subsequently counted using a hemocytometer and plated at a density of 2000, 200 and 20 cells per well in 6-well culture plates, equal volumes of cultures were plated each inhibitor concentration. Each treatment and cell density conditions for both cell lines were plated in triplicate. After expanding the colonies for a period of 8 days, cultures were fixed with a solution of 70% ethanol and crystal violet for clonogenic survival analysis. Pictures of individual wells were taken using GelCount (Version 1.3.0.4) by Oxford Optronix (Abingdon UK). A colony had to contain at least 50 cells to be counted. The number of surviving colonies following treatment are presented as a percentage of number of colonies in the experiment where the cells were treated with DMSO only.

SMILES	inhibition of ssDNA binding to OB mutant RAD52 [1]	fold lower IC50 (increased efficiency) against OB mutant compared to IB mutant [1] [fold]	toxicity towards EUFA423 cells (EUFA423F cells)	toxicity / selective toxicity towards BRCA2-mutated cells in cell viability assays (EUFA423F cells; CellTiter-Glo, 72 hours, listed as Z99)	toxicity / selective toxicity towards BRCA2-mutated cells in cell viability assays (EUFA423F cells; CellTiter-Glo, 72 hours, listed as Z56)	IC50 (EUFA423F cells; Homo sapiens, CellTiter-Glo, 72 hours, read-out: IC50 value for the EUFA423F viability experiments) [µM]
O=C(Cn1cccc([N+](=O)[O-])c1=O)c1c[nH]c2ccccc12 [Example 1]	able to inhibit	6	yes	selectively toxic; also recorded: shows toxicity towards BRCA2-mutated cells		
COc1ccccc1NS(=O)(=O)c1cc(C(=O)O)ccc1C [Example 8]	able to inhibit	6	yes		toxicity only towards BRCA2 mutant cells; also recorded: selectively toxic to BRCA2-mutated cells	32 ± 12.1

From US20260193227A1, “THERAPEUTIC COMPOUNDS AND METHODS” (UNIVERSITY OF IOWA RESEARCH FOUNDATION, priority 2022, published 2026)
